Tests used:
[1] = system: VCap prostate cancer; experiment: Non-castrated VCap prostate cancer model; format: in vivo, male CB17/Scid mice
Method: Compound (I), enzalutamide, and abiraterone were tested in non-castrated VCap prostate cancer model in male CB17/Scid mice.
All treatment groups reduced mean tumor volume.

[2] = system: U-118MG xenograft tumors; experiment: U-118MG glioma subcutaneous xenograft model; format: in vivo, female CB17 SCID mice; conditions: for T/C / TGI / Tumor Size: PG-D27
Method: The tumor cells were routinely subcultured twice weekly. The cells growing in an exponential growth phase were harvested and counted for tumor inoculation.
The treatments was started on day 7 after tumor inoculation when the average tumor volume reached 150 mm^3. 60 mice were selected and assigned into 6 groups. The testing articles were administrated to the mice according to Table 1.
Tumor size was measured twice weekly in two dimensions using a caliper, and the volume was expressed in mm^3 using the formula: V=0.5 a×b^2 where a and b are the long and short diameters of the tumor, respectively. The tumor sizes are then used for the calculation of T/C and TGI values.
The T/C value (in percent) is an indication of antitumor effectiveness; T and C are the mean volume of the treated and control groups, respectively, on a given day.
TGI was calculated for each group using the formula: TGI (%)=[1−(Ti−T0)/(Vi−V0)]×100; Ti is the average tumor volume of a treatment group on PG-D28 T0 is the average tumor volume of the treatment group on the day of treatment start, Vi is the average tumor volume of the vehicle control group on the same day with Ti, and V0 is the average tumor volume of the vehicle group on the day of treatment start.
All Groups were taken down on PG-D28, tumor, plasma and brain samples were collected.
For statistical analysis for difference among groups 2-6 and group 1, a one-way ANOVA was performed. All the analysis were conducted using GraphPad Prism software. p<0.05 was considered to be statistically significant.

[3] = Group 2: Compound (I) 10 mg/kg PO, QD
[4] = Group 3: Compound (I) 30 mg/kg PO, QD
[5] = Group 4: Compound (I) 60 mg/kg PO, QD
[6] = Group 5: Compound (I) 60 mg/kg PO, QOD

SMILES: CC(C)N1CCOc2c(F)cc(-c3nc(Nc4ccc(C5CCN(C)CC5)cn4)ncc3F)cc21 [Compound (I), 5-fluoro-4-(8-fluoro-4-isopropyl-3,4-dihydro-2H-benzo[b][1,4]oxazin-6-yl)-N-(5-(1-methylpiperidin-4-yl)pyridin-2-yl)pyrimidin-2-amine]
- Tumor volume (mean ± SEM) ([1]; Group 3: Compound (I) 10 mg/kg p.o. QD * 26 days, Day 0): 171.8 ± 6 mm^3
- Tumor volume (mean ± SEM) ([1]; Group 3: Compound (I) 10 mg/kg p.o. QD * 26 days, Day 4): 221.9 ± 15.2 mm^3
- Tumor volume (mean ± SEM) ([1]; Group 3: Compound (I) 10 mg/kg p.o. QD * 26 days, Day 7): 260.9 ± 13.8 mm^3
- Tumor volume (mean ± SEM) ([1]; Group 3: Compound (I) 10 mg/kg p.o. QD * 26 days, Day 11): 310.5 ± 19.9 mm^3
- Tumor volume (mean ± SEM) ([1]; Group 3: Compound (I) 10 mg/kg p.o. QD * 26 days, Day 14): 381.2 ± 15.4 mm^3
- Tumor volume (mean ± SEM) ([1]; Group 3: Compound (I) 10 mg/kg p.o. QD * 26 days, Day 18): 420.6 ± 20.2 mm^3
- Tumor volume (mean ± SEM) ([1]; Group 3: Compound (I) 10 mg/kg p.o. QD * 26 days, Day 21): 514.2 ± 16.5 mm^3
- Tumor volume (mean ± SEM) ([1]; Group 3: Compound (I) 10 mg/kg p.o. QD * 26 days, Day 25): 596.9 ± 22.9 mm^3
- Tumor volume (mean ± SEM) ([1]; Group 4: Compound (I) 30 mg/kg p.o. QD * 26 days, Day 0): 171.7 ± 6.1 mm^3
- Tumor volume (mean ± SEM) ([1]; Group 4: Compound (I) 30 mg/kg p.o. QD * 26 days, Day 4): 218.9 ± 14.4 mm^3
- Tumor volume (mean ± SEM) ([1]; Group 4: Compound (I) 30 mg/kg p.o. QD * 26 days, Day 7): 233.4 ± 16.4 mm^3
- Tumor volume (mean ± SEM) ([1]; Group 4: Compound (I) 30 mg/kg p.o. QD * 26 days, Day 11): 253.7 ± 20.6 mm^3
- Tumor volume (mean ± SEM) ([1]; Group 4: Compound (I) 30 mg/kg p.o. QD * 26 days, Day 14): 279.1 ± 23.6 mm^3
- Tumor volume (mean ± SEM) ([1]; Group 4: Compound (I) 30 mg/kg p.o. QD * 26 days, Day 18): 259.2 ± 23.5 mm^3
- Tumor volume (mean ± SEM) ([1]; Group 4: Compound (I) 30 mg/kg p.o. QD * 26 days, Day 21): 235.9 ± 18.3 mm^3
- Tumor volume (mean ± SEM) ([1]; Group 4: Compound (I) 30 mg/kg p.o. QD * 26 days, Day 25): 232.9 ± 21.3 mm^3
- Antitumor effect ([1]; compound (I) 30 mg/kg PO QD, enzalutamide 20 mg/kg PO QD): greatest inhibition of tumor growth
- Tumor volume (mean ± SEM) ([2]; 10 mg/kg PO QD, day 0): 154 ± 12 mm^3
- Tumor volume (mean ± SEM) ([2]; 10 mg/kg PO QD, day 3): 238 ± 16 mm^3
- Tumor volume (mean ± SEM) ([2]; 10 mg/kg PO QD, day 7): 277 ± 20 mm^3
- Tumor volume (mean ± SEM) ([2]; 10 mg/kg PO QD, day 10): 291 ± 28 mm^3
- Tumor volume (mean ± SEM) ([2]; 10 mg/kg PO QD, day 14): 275 ± 28 mm^3
- Tumor volume (mean ± SEM) ([2]; 10 mg/kg PO QD, day 17): 281 ± 34 mm^3
- Tumor volume (mean ± SEM) ([2]; 10 mg/kg PO QD, day 21): 269 ± 43 mm^3
- Tumor volume (mean ± SEM) ([2]; 10 mg/kg PO QD, day 24): 270 ± 40 mm^3
- Tumor volume (mean ± SEM) ([2]; 10 mg/kg PO QD, day 28): 273 ± 39 mm^3
- Tumor volume (mean ± SEM) ([2]; 30 mg/kg PO QD, day 0): 155 ± 11 mm^3
- Tumor volume (mean ± SEM) ([2]; 30 mg/kg PO QD, day 3): 237 ± 22 mm^3
- Tumor volume (mean ± SEM) ([2]; 30 mg/kg PO QD, day 7): 273 ± 26 mm^3
- Tumor volume (mean ± SEM) ([2]; 30 mg/kg PO QD, day 10): 241 ± 25 mm^3
- Tumor volume (mean ± SEM) ([2]; 30 mg/kg PO QD, day 14): 230 ± 19 mm^3
- Tumor volume (mean ± SEM) ([2]; 30 mg/kg PO QD, day 17): 214 ± 16 mm^3
- Tumor volume (mean ± SEM) ([2]; 30 mg/kg PO QD, day 21): 193 ± 17 mm^3
- Tumor volume (mean ± SEM) ([2]; 30 mg/kg PO QD, day 24): 174 ± 19 mm^3
- Tumor volume (mean ± SEM) ([2]; 30 mg/kg PO QD, day 28): 172 ± 18 mm^3
- Tumor volume (mean ± SEM) ([2]; 60 mg/kg PO QD, day 0): 156 ± 12 mm^3
- Tumor volume (mean ± SEM) ([2]; 60 mg/kg PO QD, day 3): 220 ± 17 mm^3
- Tumor volume (mean ± SEM) ([2]; 60 mg/kg PO QD, day 7): 264 ± 14 mm^3
- Tumor volume (mean ± SEM) ([2]; 60 mg/kg PO QD, day 10): 227 ± 10 mm^3
- Tumor volume (mean ± SEM) ([2]; 60 mg/kg PO QD, day 14): 202 ± 10 mm^3
- Tumor volume (mean ± SEM) ([2]; 60 mg/kg PO QD, day 17): 174 ± 12 mm^3
- Tumor volume (mean ± SEM) ([2]; 60 mg/kg PO QD, day 21): 160 ± 10 mm^3
- Tumor volume (mean ± SEM) ([2]; 60 mg/kg PO QD, day 24): 156 ± 8 mm^3
- Tumor volume (mean ± SEM) ([2]; 60 mg/kg PO QD, day 28): 156 ± 8 mm^3
- Tumor volume (mean ± SEM) ([2]; 60 mg/kg PO QOD, day 0): 154 ± 11 mm^3
- Tumor volume (mean ± SEM) ([2]; 60 mg/kg PO QOD, day 3): 233 ± 20 mm^3
- Tumor volume (mean ± SEM) ([2]; 60 mg/kg PO QOD, day 7): 304 ± 27 mm^3
- Tumor volume (mean ± SEM) ([2]; 60 mg/kg PO QOD, day 10): 273 ± 28 mm^3
- Tumor volume (mean ± SEM) ([2]; 60 mg/kg PO QOD, day 14): 234 ± 22 mm^3
- Tumor volume (mean ± SEM) ([2]; 60 mg/kg PO QOD, day 17): 215 ± 22 mm^3
- Tumor volume (mean ± SEM) ([2]; 60 mg/kg PO QOD, day 21): 193 ± 20 mm^3
- Tumor volume (mean ± SEM) ([2]; 60 mg/kg PO QOD, day 24): 183 ± 21 mm^3
- Tumor volume (mean ± SEM) ([2]; 60 mg/kg PO QOD, day 28): 177 ± 22 mm^3
- T/C [2, 3]: 43.20%
- TGI [2, 3]: 75.08%
- Tumor Size [2, 3]: 273 ± 39 mm^3
- T/C [2, 4]: 27.32%
- Tumor Size [2, 4]: 172 ± 18 mm^3
- T/C [2, 5]: 24.64%
- TGI [2, 5]: 100.03%
- Tumor Size [2, 5]: 156 ± 8 mm^3
- T/C [2, 6]: 28.09%
- TGI [2, 6]: 95.14%
- Tumor Size [2, 6]: 177 ± 22 mm^3
- Antitumor activity relative to the control group ([2]; mouse, in vivo): dose-dependent and statistically significant antitumor activity
- Effect of 30 mg/kg QD compared with 60 mg/kg QOD ([2]; mouse, in vivo): similar

From US20230000876A1, “TREATING CANCERS WITH A CYCLIN-DEPENDENT KINASE INHIBITOR” (Nuvation Bio Inc., priority 2021, published 2023)
